Consider 34 molecules from patent US12152038B2, “Vasopressin receptor antagonists and products and methods related thereto” (Neumora Therapeutics, Inc., priority 2017, dated 2024).

The target in experiment [1] is T1, human Arginine Vasopressin Receptor V2 (AVPR2) (Homo sapiens, UniProt P30518).
T1 construct: host or cells: 1321N1 (cAMPZen V2 assay ready frozen cells)
The experiment in a line: Vasopressin V2 receptor antagonist assay (TR-FRET cAMP, 1321N1 cells). Type of experiment: cell-based. How it is done: The purpose of the assay was to determine the inhibitory effect of synthesized compounds on the Vasopressin receptor 2. The assay was performed in commercially available 1321N1 cells expressing the human Arginine Vasopressin Receptor V2 (AVPR2) (Perkin Elmer #ES-363-CF). Arginine Vasopressin (AVP) evokes an increase in intracellular cAMP in these cells which is measured in a TR-FRET assay using a Europium cAMP tracer and ULight labelled antibody reagents contained in a LANCE Ultra cAMP kit (Perkin Elmer #TRF0263). Increases in cAMP in the assay result in a reduction in TR-FRET as the cAMP produced by the stimulated cells competes with the Eu-cAMP tracer for binding sites on the ULight labelled antibody. Test compounds were assessed for their ability to affect the magnitude of the response to AVP, with antagonists showing a concentration-dependent decrease in the AVP-mediated reduction in TR-FRET signal.
cAMPZen V2 assay ready cells were thawed at 37° C. and resuspended directly from frozen in 9 ml growth medium consisting of DMEM supplemented with 10% v/v fetal bovine serum, 1× non-essential amino acids, and 1 mM sodium pyruvate. Cells were spun at 1000 rpm for 3 minutes and the supernatant was carefully removed and discarded. The pellet was resuspended in 5 ml stimulation buffer and the cell density determined using the Vi-Cell automated cell counter. The cell suspension was diluted to a 0.2×10^6/ml suspension ready for plating. To all wells of a white 384-well Optiplate (Perkin Elmer #6007299) 5 μL of cells in stimulation buffer were dispensed (1,000 cells per well). Stimulation buffer consisted of HBSS (+Ca/+Mg) supplemented with 5 mM HEPES, 0.1% BSA stabiliser and 0.5 mM IBMX.
At the start of each assay day the potency of AVP was assessed and an EC80 concentration determined for subsequent compound profiling. Assays were performed by first an addition of 2.5 μl of control or test compound at 4× final concentration in stimulation buffer followed by 2.5 μl of AVP at 4× final concentration in stimulation buffer. After a 1 hour reaction, detection reagents were added by first an addition of 5 μl EU-cAMP tracer, followed by 5 μl ULight-anti-cAMP both diluted as per the manufacturer's instructions. After a one hour incubation, plates were ready to be read (signals then remained stable for up to 24 hours). Changes in time resolved fluorescence were monitored with excitation via a laser (337 nm) measuring both 615 nm and 665 nm emission wavelengths. […] For compound profiling, test compounds were dispensed by the Labcyte Echo (10-point curve, 1:3 dilutions) in a target 0.1 μl volume then diluted 750-fold in stimulation buffer containing 3% DMSO prior to addition to the cells. At the end of the incubation period, 2.5 μl of AVP in stimulation buffer was added at the previously determined EC80 concentration.
In-plate controls for the assay included a Tolvaptan concentration-response curve as the reference V2 antagonist and an AVP concentration-response curve to confirm the reproducibility of the EC80 used for the compound challenge.

For experiment [2], the target named is T2, human Oxytocin Receptor (hOTR) (Homo sapiens, UniProt P30559).
T2 construct: host or cells: CHEM-1 (ready-to-assay frozen cells)
T2 sequence (P30559 1-389): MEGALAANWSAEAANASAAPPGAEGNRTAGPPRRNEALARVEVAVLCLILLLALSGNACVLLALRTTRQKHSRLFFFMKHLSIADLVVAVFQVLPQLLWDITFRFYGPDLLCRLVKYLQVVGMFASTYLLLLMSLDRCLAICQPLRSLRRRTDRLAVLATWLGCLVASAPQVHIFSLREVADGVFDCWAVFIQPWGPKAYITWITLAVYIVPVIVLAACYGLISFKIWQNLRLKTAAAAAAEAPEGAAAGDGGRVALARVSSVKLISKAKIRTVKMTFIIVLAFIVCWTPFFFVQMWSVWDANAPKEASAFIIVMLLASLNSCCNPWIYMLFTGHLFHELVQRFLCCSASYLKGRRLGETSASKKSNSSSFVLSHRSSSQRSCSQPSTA
The experiment in a line: Oxytocin receptor (OTR) antagonist assay (FLIPR calcium, CHEM-1-hOTR cells). Type of experiment: cell-based. How it is done: This assay was performed in CHEM-1 cells expressing the human Oxytocin Receptor (hOTR) to determine the inhibitory effect of the compounds of the invention on the human Oxytocin receptor. Oxytocin evokes an increase in intracellular calcium in CHEM-1-hOTR cells which is measured in a fluorescence assay on the FLIPR^TETRA using calcium sensitive dyes. Test compounds were assessed for their ability to affect the magnitude of the response to oxytocin, with antagonists showing a concentration-dependent reduction in the oxytocin-mediated fluorescence.
CHEM-1-hOTR ready was used to assay frozen cells (Eurofins #HTS09ORTA) which are supplied with a proprietary Media Component.
Day 1 of the assay: Cells were thawed in a 37° C. water bath and diluted with the supplied Media Component to a final volume of 10 ml. The cell suspension was centrifuged at 1000 rpm for 3 min at room temperature and the supernatant was discarded. The cell pellet was resuspended in Media Component (10.5 ml) and the cells (25 μL) were dispensed into a poly-D-lysine coated black, clear bottomed, 384-well plate. The plates were incubated overnight at 37° C., 5% CO2.
Day 2: At the start of each assay day the potency of oxytocin was assessed and an EC80 concentration was determined for subsequent compound profiling. Assays were performed using a two-step addition protocol on the FLIPR^TETRA; first addition of 5 μl of control or test compound at 10× final in assay buffer with 15 min incubation at 37° C., 5% CO2 followed by 10 μl of oxytocin at 6× final concentration in assay buffer. Changes in fluorescence were monitored for 3 min after both additions on the FLIPR^TETRA using 470-495 nm excitation and 515-575 nm emission wavelengths. The assay buffer consisted of HBSS (+Ca/+Mg) supplemented with 20 mM HEPES, and for the preparation of the oxytocin agonist only, 0.1% w/v bovine serum albumin. The assay was initiated by the removal of growth media from the cells and replaced with 45 μl of Calcium-6 dye (Molecular Devices) prepared at 1× in assay buffer. Cells were loaded with dye for 60-90 min at 37° C., 5% CO2 before initiation of the FLIPR^TETRA protocol. […] For compound profiling, test compounds were first serially diluted in DMSO (10-point curve, 1:3 dilutions) then diluted 33.3-fold in assay buffer prior to addition to the dye loaded cells on the FLIPR^TETRA. At the end of the incubation period 10 μl of oxytocin in assay buffer containing 0.1% BSA was added at the previously determined EC80 concentration.
In-plate controls for the assay included a L-368,899 concentration-response curve as the reference OTR antagonist and an oxytocin concentration-response curve to confirm the reproducibility of the EC80 used for the compound challenge.

Some results are limits rather than exact numbers.

T1 sequence (P30518 whole entry): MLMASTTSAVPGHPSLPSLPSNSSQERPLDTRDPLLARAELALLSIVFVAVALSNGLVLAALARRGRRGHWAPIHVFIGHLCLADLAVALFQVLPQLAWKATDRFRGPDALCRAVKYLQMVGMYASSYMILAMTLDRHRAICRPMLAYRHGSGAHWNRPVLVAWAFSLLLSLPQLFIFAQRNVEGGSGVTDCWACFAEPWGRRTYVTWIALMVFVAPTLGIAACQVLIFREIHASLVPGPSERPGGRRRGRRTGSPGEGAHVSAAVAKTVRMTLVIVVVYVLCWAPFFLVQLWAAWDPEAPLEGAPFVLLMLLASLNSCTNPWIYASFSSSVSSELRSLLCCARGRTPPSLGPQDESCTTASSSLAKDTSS

Regarding `CC1COc2cc(Cl)ccc2N1C(=O)N1CC2(C1)CN(c1noc3cccnc13)C2` (stereo not shown) [18-3], the IC50 in experiment [1] is 0.1 to 0.5 µM; in experiment [2] it was at least 1 µM. Take `CC1COc2cc(F)ccc2N1C(=O)N1CC2(C1)CN(c1ccc(F)cn1)C2` (single isomer, unassigned) [12-1-B]: the IC50 in experiment [1] and in experiment [2] was 0.1 to 0.5 µM in each case. In turn, `Cc1cnc(N2CC3(CN(C(=O)N4c5ccc(Cl)cc5OCC4C)C3)C2)nc1` (stereo not shown) [20-13] showed an IC50 in experiment [1] of 0.1 to 0.5 µM. With `Cc1ccnc(N2CC3(CN(C(=O)N4c5ccc(Cl)cc5OCC4C)C3)C2)n1` (stereo not shown) [20-12], the half-inhibitory concentration (IC50) was below 0.1 µM in experiment [1] and 0.1 to 0.5 µM in experiment [2]. In the case of `O=C(N1CC2(C1)CN(c1ccc(F)cn1)C2)N1CCOCc2cc(Cl)ccc21` [8-4], the half-maximal inhibitory concentration (IC50) in experiment [2] is at least 1 µM. `O=C(N1CC2(C1)CN(c1cc(F)ccn1)C2)N1CCc2cc(Cl)ccc21` [1-79]: in experiment [1], the IC50 is at least 1 µM. In the case of `CC1COc2cc(F)ccc2N1C(=O)N1CC2(C1)CN(c1noc3ccccc13)C2` (stereo not shown) [4-3], the IC50 in experiment [1] is at least 1 µM. Still for that read-out and setting: the result for `CC1COc2cc(F)c(F)cc2N1C(=O)N1CC2(C1)CN(c1cccnn1)C2` (stereo not shown) [19-3] reads at least 1 µM. Still for that read-out and setting: with `O=C(N1CC2(C1)CN(c1ccc(F)cn1)C2)N1CCOc2cc(F)c(F)cc21` [9-6] the figure was at least 1 µM; with `CC1COc2cc(Cl)ccc2N1C(=O)N1CC2(C1)CN(c1cccnn1)C2` (single isomer, unassigned) [9-1-A], at least 1 µM. For the molecule `Cc1cccnc1N1CC2(CN(C(=O)N3CCOc4cc(Cl)ccc43)C2)C1` [1-5], the IC50 in experiment [1] is at least 1 µM. Still for that read-out and setting: with `CC1COc2cc(F)ccc2N1C(=O)N1CC2(C1)CN(c1ncccn1)C2` (stereo not shown) [18-1, (7-fluoro-3-methyl-2,3-dihydro-4H-benzo[b][1,4]oxazin-4-yl)(6-(pyrimidin-2-yl)-2,6-diazaspiro[3.3]heptan-2-yl)methanone] the figure was at least 1 µM. Same read-out and setting: with `Cc1cncc(N2CC3(CN(C(=O)N4c5ccc(F)cc5OCC4C)C3)C2)n1` (single isomer, unassigned) [20-2-A] the figure was at least 1 µM; with `Cc1nc(N2CC3(CN(C(=O)N4CCOc5cc(Cl)ccc54)C3)C2)ncc1F` [6-1, (7-chloro-2,3-dihydro-4H-benzo[b][1,4]oxazin-4-yl)(6-(5-fluoro-4-methylpyrimidin-2-yl)-2,6-diazaspiro[3.3]heptan-2-yl)methanone], at least 1 µM. In experiment [1], `CC1COc2cc(F)c(F)cc2N1C(=O)N1CC2(C1)CN(c1ccc(F)cn1)C2` (single isomer, unassigned) [19-5-B] came in with an IC50 below 0.1 µM.

In the case of `O=C(N1CC2(C1)CN(c1ccccn1)C2)N1CCc2cc(Cl)ccc21` [1-77], the IC50 in experiment [1] was at least 1 µM. Still for that read-out and setting: the result for `CC1COc2cc(F)c(F)cc2N1C(=O)N1CC2(C1)CN(c1ncccn1)C2` (stereo not shown) [19-1, (6,7-difluoro-3-methyl-2,3-dihydro-4H-benzo[b][1,4]oxazin-4-yl)(6-(pyrimidin-2-yl)-2,6-diazaspiro[3.3]heptan-2-yl)methanone] reads at least 1 µM; that for `O=C(N1CC2(C1)CN(c1cnccn1)C2)N1CCOc2cc(Cl)ccc21` [8-3], at least 1 µM; that for `O=C(N1CC2(C1)CN(c1cccnn1)C2)N1CCOc2cc(Cl)c(F)cc21` [1-81], at least 1 µM. Same read-out and setting: with `O=C(N1CC2(C1)CN(c1ccccn1)C2)N1CCOc2cc(Cl)ccc21` [8-2] the figure was at least 1 µM; with `O=C(N1CC2(C1)CN(c1ncccn1)C2)N1CCOc2cc(Cl)ccc21` [1-4], at least 1 µM; with `COc1ccnc(N2CC3(CN(C(=O)N4CCOc5cc(Cl)ccc54)C3)C2)c1` [1-15], at least 1 µM. On the same count and under the same terms, with `COc1ccc2c(c1)OCCN2C(=O)N1CC2(C1)CN(c1ccc(F)cn1)C2` [9-2] the figure was at least 1 µM; with `O=C(N1CC2(C1)CN(c1ncc(F)cn1)C2)N1CCOc2cc(Cl)ccc21` [4-2], at least 1 µM.

For `O=C(N1CC2(C1)CN(c1ccc(F)cn1)C2)N1CCC(O)c2cc(Cl)ccc21` (stereo not shown) [13-1, (6-chloro-4-hydroxy-3,4-dihydroquinolin-1(2H)-yl)(6-(5-fluoropyridin-2-yl)-2,6-diazaspiro[3.3]heptan-2-yl)methanone], the IC50 in experiment [2] was at least 1 µM. In experiment [1], `O=C(N1CC2(C1)CN(c1ccc(F)cn1)C2)N1CCc2cc(Cl)ccc21` [8-11] gave a 50% inhibitory concentration (IC50) of at least 1 µM. The same measure, in the same setting: with `Cc1ccnc(N2CC3(CN(C(=O)N4CCOc5cc(Cl)ccc54)C3)C2)c1` [1-14] the figure was at least 1 µM; with `O=C(N1CC2(C1)CN(c1noc3ccccc13)C2)N1CCOc2cc(Cl)ccc21` [4-1, (6-(benzo[d]isoxazol-3-yl)-2,6-diazaspiro[3.3]heptan-2-yl)(7-chloro-2,3-dihydro-4H-benzo[b][1,4]oxazin-4-yl)methanone], at least 1 µM. Same read-out and setting: with `CC1COc2cc(Cl)ccc2N1C(=O)N1CC2(C1)CN(c1cccnc1)C2` (single isomer, unassigned) [20-1-B] the figure was at least 1 µM. On the same count and under the same terms, with `O=C(N1CC2(C1)CN(c1cnccn1)C2)N1CCc2cc(Cl)ccc21` [8-14] the figure was at least 1 µM; with `O=C(N1CC2(C1)CN(c1ncccc1F)C2)N1CCc2cc(Cl)ccc21` [1-76], at least 1 µM; with `CC1COc2cc(F)c(F)cc2N1C(=O)N1CC2(C1)CN(c1cccnn1)C2` (single isomer, unassigned) [19-3-B], at least 1 µM.

For the molecule `O=C(N1CC2(C1)CN(c1ccc(F)cn1)C2)N1CCC(F)(F)c2cc(Cl)ccc21` [17-1, (6-chloro-4,4-difluoro-3,4-dihydroquinolin-1(2H)-yl)(6-(5-fluoropyridin-2-yl)-2,6-diazaspiro[3.3]heptan-2-yl)methanone], the IC50 in experiment [1] was at least 1 µM. The same measure, in the same setting: the result for `CC1COc2cc(F)ccc2N1C(=O)N1CC2(C1)CN(c1ncc(F)cn1)C2` (single isomer, unassigned) [18-4-B] reads at least 1 µM.
